Assay results published in patent publication US9446051B2, “Neuroprotection and myelin repair using nestorone®” (The Population Council, Inc., priority 2009, dated 2016).

Assays:
[1] = tested on: hippocampi of ovariectomized female Sprague Dawley rats; format: in vivo; details: progestin plus E2, hippocampi 24 hours after injection, FIG. 9A
Protocol: The impact of the combination of 17β-estradiol (E2) and various progestins on neurogenesis and cell viability […] was also carried out. Young adult ovariectomized female Sprague Dawley rates were thus divided into six groups and received injection of either E2 alone or E2 combined with one of the progestins. Hippocampi were isolated 24 hours later for Western blot analysis and flow cytometry to determine the impact of treatment on cell viability and neurogenesis respectively. The expression level of PCNA was assessed to determine the impact of the treatment compounds on entry into the cell cycle required for neurogenesis.

[2] = tested on: androgenic, estrogenic and glucocorticoid responses; details: cited from earlier work
[3] = tested on: lysolecithin-demyelinated cerebellar slices; assay: Remyelination of lysolecithin-demyelinated cerebellar slices (MBP staining intensity); format: cell-based, rat or mouse; details: NES 20 μM, 3 days of incubation
Protocol: In the same animal model, cerebellar slices were cultured until myelination was complete, then incubated overnight with lysolecithin (LYSO) to produce demyelination utilizing a known technique, (15) followed by 3 days of incubation with NES 20 μM in fresh culture medium (10% penetration in slices). Slices were immunostained for MBP. […] MBP staining intensity was measured in cerebellar slices after completion of normal myelination, after demyelination with lysolecithin, and after 3 days of incubation with NES at 20 μm, RU486 at 10 μM, or NES+RU486.

PR^lacz mice with MCAO = assay: Transient middle cerebral artery occlusion (MCAO), steroid treatment after reperfusion; format: in vivo, mouse
Protocol: In experiments conducted using progesterone receptor (PR) deficient mice (PR^−/−) compared with PR^+/− and PR^+/+ mice and both progesterone and Nestorone® were administered after ischemia and reperfusion.
In order to test the effect of steroid treatments after reperfusion, adult male PR^lacz mice were anesthetized and the middle cerebral artery (MCA) was occluded for one hour with an intraluminal filament. After ligature of the left common carotid artery, a nylon monofilament coated with thermo-melting glue was introduced through an arteriotomy performed on the external carotid artery and advanced into the internal carotid artery. Occlusion of the MCA was controlled by monitoring the cerebral blood flow within the MCA territory by laser Doppler flowmetry. The filament was withdrawn one hour after occlusion to allow reperfusion, and the common carotid artery ligature was also removed. The mice were randomly and blindly assigned to either progesterone, allopregnanolone or Nestorone®, or vehicle-treated (sesame oil; sigma). All of the steroids were initially dissolved in a small volume of ethanol and further diluted in sesame oil to obtain the desired final steroid concentrations. Injections were given interperitoneally (IP) at 1, 6, and 24 hours after MCA occlusion (MCAO) according to established neuroprotective protocols. Treated mice were killed at 48 hours after MCAO.
Cerebral infarct volumes and areas were determined after triphenyltetrazolium chloride (TTC) staining of brain sections. The details of this procedure are set forth in “Progesterone Receptors: A Key For Neuroprotection In Experimental Stroke,” Endocrinology, August 2012, 153(8), pp. 1-11, which is incorporated herein by reference thereto in its entirety. […] In FIGS. 11, 12 and 13, after the administration of progesterone and Nestorone®, in neuronal density the infarct (FIG. 11) and the penumbra (FIG. 12) can clearly be shown. In FIG. 13 the decrease in […] in the penumbra after administration of progesterone and Nestorone® is also clearly shown.

[4] = tested on: organotypic neonatal rat or mouse cerebellar slice culture; assay: Myelination in organotypic cerebellar slice culture, measured by myelin basic protein (MBP) immunoreactivity; format: cell-based
Text: In experiments conducted in organotypic neonatal rat or mouse cerebellar slice culture, progesterone accelerated axon myelination (13,14).

[5] = tested on: primary hippocampal neurons; assay: Neuroprotection of primary hippocampal neurons against glutamate, LDH release; format: cell-based
Protocol: The effect of NES and other progestins on CNS plasticity and the neuroprotective efficacy against glutamate toxicity has also been evaluated. LDH was measured, as a well-accepted assay, to determine such effect after exposure of the cells to glutamate, and the neuronal viability was assessed under the action of various progestins.
Comparisons of neuroprotection against neurodegenerative insults were carried out. Efficacy was determined in connection with the protection of primary hippocampal neurons against degeneration induced by excitoxic glutamate. Hippocampal neuronal cultures grown on […] culture plates for 7d in vitro were pretreated with vehicle alone or test compounds, followed by exposure to 200 μM glutamate as previously described (13). After glutamate exposure, cultures were washed with HEPES-buffered saline solution and replaced with fresh NBM containing the test compounds or combinations. Cultures were returned to the incubator and incubated for 24 hours prior to analysis of neuronal viability using colorimetric LDH release in the media. Dose-response analysis was conducted for each of the progestins tested, and the results are shown in FIGS. 7A-F. Neuroprotective efficiency was calculated as follows: NE=(Vsample−Vglutamate)/(Vsubcontrol−Vglutamate).

[6] = tested on: hippocampus of Sprague-Dawley ovariectomized female rats; assay: In vivo NPC proliferation and cell viability in ovariectomized rats (Western blot, FACS of BrdU+ cells); parameters: species or system rat
Protocol: The generalized ability of the above in vitro findings to the in vivo condition were investigated. Analyses of NPC proliferation in rats and cell viability were conducted in three-month-old Sprague-Dawley ovariectomized female rats with various of the progestins. […] In order to assess the total number of BrdU+ cells, the contralateral hippocampal hemisphere used for protein analysis was fixed and processed by FACS analysis. The total number of BrdU+ cells per each hippocampus was determined and normalized to that of vehicle control. […] In order to measure cell viability in terms of promotion of mitochondrial function and reduction in oxidative damage expression of the alpha subunit of ATP synthase-Complex V (CVα) of the mitochondrial oxidative phosphorylation pathway was assessed by Western blot analysis.

Bax/Bcl-2 = assay: In vivo apoptotic activity, Bax/Bcl-2 ratio by Western blot; details: indicator of in vivo apoptotic activity
Text: The effects of various progestins on apoptosis was studied using Western blot analysis to determine the expression level of Bax, an apoptosis mediator by […] to the mitochondria to release apoptotic factors such as cytochrome c and Bcl-2. The ratio of Bax to Bcl-2 was used as an indicator of in vivo apoptotic activity.

[7] = tested on: neural progenitor cell (NPC); assay: Neural progenitor cell proliferation, BrdU chemiluminescence ELISA; format: cell-based, rat
Protocol: In vitro studies were carried out to determine neural progenitor cell (NPC) regeneration in rats. Cell proliferation was determined by S phase incorporation of BrdU. After 4 to 6 hours starvation (medium without supplements), rNPCs were loaded with 10 μM BrdU in the presence or absence of bFGF and varying concentrations of P4 or test progestins in unsupplemented maintenance medium for 1d. The rNPCs were then processed as described previously (1, 14). After subtracting the value of the blank (without BrdU loading), data were analyzed using a one-way ANOVA, followed by a Neuman-Keuls post hoc test.

[8] = PR^+/+ mice, 48 hours after MCAO

C=C1C[C@H]2[C@@H]3CCC4=CC(=O)CC[C@@H]4[C@H]3CC[C@]2(C)[C@@]1(OC(C)=O)C(C)=O [Nestorone®, 16-methylene-17α-acetoxy-19-norpregn-4-ene-3,20-dione]
PCNA expression and neural progenitor cell proliferation [1]: greatest magnitude of PCNA expression and neural progenitor cell proliferation
androgenic response [2]: no androgenic or estrogenic action at all
estrogenic response [2]: no androgenic or estrogenic action at all
glucocorticoid response [2]: does not elicit a glucocorticoid effect except at doses 2.000-fold the therapeutic dose
remyelination after lysolecithin demyelination [3]: produced remyelination
total infarct volume and ischemic lesions in cerebral cortex and subcortical structures, PR^+/+ mice (PR^lacz mice with MCAO; PR^+/+ mice): clearly reduced
increase of time on the rotarod (PR^lacz mice with MCAO; [8]): 33%
reduction of ischemic lesions in cerebral cortex (PR^lacz mice with MCAO; [8]): 22%
reduction of ischemic lesions in subcortical structures (PR^lacz mice with MCAO; [8]): 52%
reduction of total infarct volume (PR^lacz mice with MCAO; PR^+/+ mice, 48 hours after MCAO, IP at 1, 6 and 24 hours): 32%
total infarct volume and ischemic lesions in cerebral cortex and subcortical structures, PR^+/− mice (PR^lacz mice with MCAO; PR^+/− mice): not
protection against ischemic damage compared with progesterone (PR^lacz mice with MCAO; PR^−/−, PR^+/− and PR^+/+ mice, after ischemia and reperfusion): at least comparable results
efficient neuroprotective dose (PR^lacz mice with MCAO; after stroke): 0.08 mg/kg
dose improving neurological outcomes relative to that of progesterone (PR^lacz mice with MCAO; mouse, in vivo): 100 times lower
microglial density in the penumbra (neuroinflammatory responses) (PR^lacz mice with MCAO; treatment after stroke): reduced microglial density
neuronal density in the infarct and in the penumbra (PR^lacz mice with MCAO; treatment after stroke): significantly increases the neuronal density
promyelinating potency relative to PROG [4]: significantly more potent than PROG
concentration of equal promyelinating activity ([4]; NES at 20 μm as active as PROG at 50 μm (FIG. 1)): 20 μm
myelination measured by myelin basic protein (MBP) immunoreactivity ([4]; cerebellar slice culture): promote dose-dependent myelination
neuroprotective efficacy against glutamate toxicity (LDH) ([5]; FIG. 5, NES and PROG at 10−7M): exerted the higher efficacy
neuroprotective efficacy against 200 μM glutamate (LDH release) compared with progesterone ([5]; dose-response, FIGS. 7A-F): comparable neuroprotective efficacy to that of progesterone
total number of BrdU+ cells per hippocampus ([6]; FACS, normalized to vehicle control, FIG. 8B): slightly superior to progesterone in significantly increasing Brd+ cell numbers
CDC2 protein expression ([6]; Western blot): significantly increased
PCNA expression at the protein level ([6]; Western blot, FIG. 8A): slightly superior to progesterone
expression of alpha subunit of ATP synthase-Complex V (CVα) ([6]; Western blot, FIG. 8C): increased CVA expression even greater than progesterone and levonorgestrel
ratio of Bax/Bcl-2 expression (Bax/Bcl-2): no effect
proliferation of progenitor cells compared with progesterone ([7]; FIG. 3 and FIG. 4): as effective or even more effective than progesterone
NPC proliferation (BrdU incorporation) compared with progesterone ([7]; at 24 hours, FIGS. 6A-D): comparably efficacious at their EC100 concentrations
